System: scFv1F4-QL34S
Assay: PEPperCHIP peptide array, spot fluorescence after staining with DyLight680-labeled scFv
Format: binding
Method: ScFv1F4-QL34S labeling with DyLight680, peptide array synthesis and binding detection were performed by PEPperPRINT GmbH (PEPperCHIP® Platform Technology, Heidelberg, Germany). The permutation scans were carried out on the WT decapeptide ^6TAMFQDPQER^15 and on its variants. In a permutation scan, the effect on binding of replacing each of the ten peptide positions by all amino-acids except cysteine is analyzed, which requires the synthesis of 190 spot peptides per starting peptide (19 amino-acids at 10 positions). Two arrays were prepared, each containing the permutation analysis of the WT peptide and of 19 variants. All peptides were synthesized in duplicate (7,600 peptide spots per array). The peptide arrays were stained with the DyLight680-labeled scFv1F4-QL34S. The permutation scans of the WT peptide and of variant ^6TAMFQDPFER^15 are highlighted by white frames. The staining pattern of array A (S1 Fig) was published previously.
The objective was to investigate whether a starting amino-acid replacement modifies the effect on binding of amino-acid changes at neighboring positions. For example the effect of a deleterious starting change could be compensated by a replacement elsewhere. Residue interdependences may also be found in the case of non-deleterious starting replacements. They can be identified by comparing the permutation patterns of the WT and variant peptides. Arrays A [28] (S1 Fig) and B (Fig 1) each contained the permutation scans of the WT decapeptide ^6TAMFQDPQER^15 and of nineteen variants. Data recorded for the WT and 14 variant peptides of array A were described previously. The data presented here include all permutation scans in array B (WT and 19 variants), together with those of 5 variants in array A. One of these was performed twice in array A (peptide ^6TRMFQDVQER^15). Therefore the data include the permutations scans of the WT and of 23 variant decapeptides (Table 1), each of them being recorded at least in duplicate.
The repeatability of fluorescence measurements can be assessed because: i/ all peptides were synthesized in duplicate (Fig 1), ii/ the duplicated scan of peptide ^6TRMFQDVQER^15 was repeated in array A and iii/ several peptides occur repeatedly within a same or in different families. Array B contained 3,222 different peptides, with 105 peptides repeated between 6 and 46 times.
The signal intensity ranges differed in the two arrays: 6,800 and 18,100 for the scFv—WT decapeptide interaction in arrays A and B, respectively (Table 1). However normalization of the intensity values with respect to the mean value of the scFv1F4-WT peptide intensity in each panel, produced well-superimposed patterns (Fig 2). […] In addition, assuming that T6 is not part of the epitope, the variability observed for this position (standard deviation = 0.12) provides insight into the statistical significance of the normalized intensities.

[1] = array B, mean intensity relative to WT decapeptide of array B
[2] = array A, mean intensity relative to WT decapeptide of array A

## TAMDQDPQER [starting variant of the WT decapeptide on array B]
[1]
  % of WT signal: 3%

## TAMFADPQER [starting variant of the WT decapeptide on array B]
[1]
  % of WT signal: 2%

## TAMFKDPQER [starting variant of the WT decapeptide on array B]
[1]
  % of WT signal: 2%

## TAMFQDHQER [starting variant of the WT decapeptide on array B]
[1]
  % of WT signal: 4%

## TAMFQDPFER [starting variant of the WT decapeptide on array B]
[1]
  % of WT signal: 68%

## TAMFQDPQEA [starting variant of the WT decapeptide on array B]
[1]
  % of WT signal: 6%

## TAMFQDPQEQ [starting variant of the WT decapeptide on array B]
[1]
  % of WT signal: 24%

## TAMFQDPQER [WT decapeptide, residues 6-15 of HPV16-E6 oncoprotein, array-synthesized]
[1]
  % of WT signal: 100%

## TAMFQDPSFM [starting variant of the WT decapeptide on array B]
[1]
  % of WT signal: 2%

## TAMFQDPYER [starting variant of the WT decapeptide on array B]
[1]
  % of WT signal: 37%

## TAMFQDQQER [starting variant of the WT decapeptide on array B]
[1]
  % of WT signal: 5%

## TAMFQDVFER [starting variant of the WT decapeptide on array A]
[2]
  % of WT signal: 14%
Array A, mean intensity relative to WT decapeptide of array A, listed as P12V-Q13F
  % of WT signal: exceeded 10%

## TAMFQDVQER [starting variant of the WT decapeptide on array B]
[1]
  % of WT signal: 16%

## TAMFQDVYER [starting variant of the WT decapeptide on array B]
[1]
  % of WT signal: 16%
Array B, mean intensity relative to WT decapeptide of array B, listed as P12V-Q13Y
  % of WT signal: exceeded 10%

## TAMFQDYQER [starting variant of the WT decapeptide on array B]
[1]
  % of WT signal: 7%
Array not stated at the place (arrays A and B)
  averaged fluorescence signal as % of that recorded with the WT peptide: < 10%

## TAMFQRAQER [starting variant of the WT decapeptide on array B]
[1]
  % of WT signal: 3%

## TAMFQSPYER [starting variant of the WT decapeptide on array A]
[2]
  % of WT signal: 21%
Array A, mean intensity relative to WT decapeptide of array A, listed as D11S-Q13Y
  % of WT signal: exceeded 10%

## TAMFQTPQER [starting variant of the WT decapeptide on array B]
[1]
  % of WT signal: 3%

## TAMLADPQER [starting variant of the WT decapeptide on array B]
[1]
  % of WT signal: 3%

## TAMLQDPQER [starting variant of the WT decapeptide on array B]
[1]
  % of WT signal: 3%

## TGSFQDPQER [starting variant of the WT decapeptide on array B]
[1]
  % of WT signal: 66%
Array B, mean intensity relative to WT decapeptide of array B, listed as A7G-M8S
  % of WT signal: exceeded 10%

## TGSFQRASFM [starting variant of the WT decapeptide on array B]
[1]
  % of WT signal: 2%

## TQMFQDPYER [starting variant of the WT decapeptide on array A]
[2]
  % of WT signal: 23%
Array A, mean intensity relative to WT decapeptide of array A, listed as A8Q-Q13Y
  % of WT signal: exceeded 10%

## TRMFQDVQER [starting variant of the WT decapeptide on array A]
[2]
  % of WT signal: 5%
